Measured values published in patent US6667387B1, “HCV core peptides” (priority 1992, dated 2003).
Ends that are not written are not given here. * marks the point of attachment. Biotin = O=C1N[C@H]2[C@H](CS[C@H]2CCCCC(=O)*)N1

Experiments:
[1] = ELISA with seronegative / negative control sera (specificity); format: binding, human
In short: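 Specificity readout is OD at 450 nm (HRP goat anti-human Ig, TMB/H2O2, sulfuric acid stop), with ≥0.250 counted positive. Seronegative donor sera (typically 1:100, 1 h, 37° C) were applied to casein-blocked wells coated with peptide directly or via streptavidin capture of biotinylated peptide.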

[2] = test system: antibodies in sera from HCV-seropositive donors; assay: ELISA with HCV antibody-positive sera (biotinylated peptides on streptavidin- or avidin-coated plates, unbiotinylated peptides coated directly); format: binding, human; settings: for PEPTIDE ELISA (O.D.): Table 12, biotinylated 20-mers
In short: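 Peptides coated either directly at 2–5 or 3 μg/ml in carbonate buffer pH 9.6, or biotinylated at 1 μg/ml on streptavidin-coated wells (3 μg/ml). Plates casein-blocked, then human sera (1:100 or 1:20) incubated 1 h at 37° C. Bound antibody detected with HRP anti-human Ig/TMB, read as OD450.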

[3] = Table 8, serum 1782 (blood donor), Avidin
[4] = Table 8, serum 1784 (blood donor), Avidin
[5] = Table 8, serum 1785 (blood donor), Avidin
[6] = Table 8, serum 1794 (blood donor), Avidin
[7] = Table 8, serum 8243 (HCV), Avidin
[8] = Table 8, serum 8247 (HCV), Avidin
[9] = Table 8, serum 8248 (HCV), Avidin
[10] = Table 8, serum 8269 (HCV), Avidin
[11] = Table 8, serum 8273 (HCV), Avidin
[12] = Table 8, serum 8278 (HCV), Avidin
[13] = Table 8, serum 8285 (HCV), Avidin
[14] = Table 8, serum 8290 (HCV), Avidin
[15] = Table 8, serum 8291 (HCV), Avidin

Substance: IIPDREVLYREFDEMEECSQ
- optical density (450 nm) ([1]; Table 4F, negative serum): 0.005
- optical density (450 nm) ([1]; Table 5, sample 1747 (negative), peptide concentration 0.01 micrograms per milliliter, listed as HCV peptide IX): 0.043
- optical density (450 nm) ([1]; Table 5, sample 1747 (negative), peptide concentration 0.03 micrograms per milliliter, listed as HCV peptide IX): 0.044
- optical density (450 nm) ([1]; Table 5, sample 1747 (negative), peptide concentration 0.1 micrograms per milliliter, listed as HCV peptide IX): 0.042
- optical density (450 nm) ([1]; Table 5, sample 1747 (negative), peptide concentration 0.3 micrograms per milliliter, listed as HCV peptide IX): 0.046
- optical density (450 nm) ([1]; Table 5, sample 1747 (negative), peptide concentration 1.0 micrograms per milliliter, listed as HCV peptide IX): 0.049
- optical density (450 nm) ([1]; Table 5, sample 1747 (negative), peptide concentration 3.0 micrograms per milliliter, listed as HCV peptide IX): 0.051
- optical density (450 nm) ([1]; Table 5, sample 1781 (negative), peptide concentration 0.01 micrograms per milliliter, listed as HCV peptide IX): 0.049
- optical density (450 nm) ([1]; Table 5, sample 1781 (negative), peptide concentration 0.03 micrograms per milliliter, listed as HCV peptide IX): 0.048
- optical density (450 nm) ([1]; Table 5, sample 1781 (negative), peptide concentration 0.1 micrograms per milliliter, listed as HCV peptide IX): 0.047
- optical density (450 nm) ([1]; Table 5, sample 1781 (negative), peptide concentration 0.3 micrograms per milliliter): 0.051
- optical density (450 nm) ([1]; Table 5, sample 1781 (negative), peptide concentration 1.0 micrograms per milliliter, listed as HCV peptide IX): 0.051
- optical density (450 nm) ([1]; Table 5, sample 1781 (negative), peptide concentration 3.0 micrograms per milliliter): 0.053
- optical density (450 nm) [1, 3]: 0.062
- optical density (450 nm) [1, 4]: 0.050
- optical density (450 nm) [1, 5]: 0.050
- optical density (450 nm) [1, 6]: 0.098
- optical density (450 nm) ([2]; Table 4F, serum 8315, 20-fold dilution): 2.672
- optical density (450 nm) ([2]; Table 4F, serum 8316, 20-fold dilution): 0.367
- optical density (450 nm) ([2]; Table 4F, serum 8317, 20-fold dilution): 1.634
- optical density (450 nm) ([2]; Table 4F, serum 8318, 20-fold dilution): 2.431
- optical density (450 nm) ([2]; Table 4F, serum 8320, 20-fold dilution): 0.896
- optical density (450 nm) ([2]; Table 4F, serum 8321, 20-fold dilution): 0.457
- optical density (450 nm) ([2]; Table 4F, serum 8326, 20-fold dilution): 2.540
- optical density (450 nm) ([2]; Table 5, sample 8242 (positive), peptide concentration 0.01 micrograms per milliliter, listed as HCV peptide IX): 0.215
- optical density (450 nm) ([2]; Table 5, sample 8242 (positive), peptide concentration 0.03 micrograms per milliliter, listed as HCV peptide IX): 0.496
- optical density (450 nm) ([2]; Table 5, sample 8242 (positive), peptide concentration 0.1 micrograms per milliliter, listed as HCV peptide IX): 0.911
- optical density (450 nm) ([2]; Table 5, sample 8242 (positive), peptide concentration 0.3 micrograms per milliliter, listed as HCV peptide IX): 0.795
- optical density (450 nm) ([2]; Table 5, sample 8242 (positive), peptide concentration 1.0 micrograms per milliliter, listed as HCV peptide IX): 0.777
- optical density (450 nm) ([2]; Table 5, sample 8242 (positive), peptide concentration 3.0 micrograms per milliliter, listed as HCV peptide IX): 0.791
- optical density (450 nm) ([2]; Table 5, sample 8243 (positive), peptide concentration 0.01 micrograms per milliliter, listed as HCV peptide IX): 0.639
- optical density (450 nm) ([2]; Table 5, sample 8243 (positive), peptide concentration 0.03 micrograms per milliliter, listed as HCV peptide IX): 1.421
- optical density (450 nm) ([2]; Table 5, sample 8243 (positive), peptide concentration 0.1 micrograms per milliliter, listed as HCV peptide IX): 1.834
- optical density (450 nm) ([2]; Table 5, sample 8243 (positive), peptide concentration 0.3 micrograms per milliliter, listed as HCV peptide IX): 1.892
- optical density (450 nm) ([2]; Table 5, sample 8243 (positive), peptide concentration 1.0 micrograms per milliliter, listed as HCV peptide IX): 1.953
- optical density (450 nm) ([2]; Table 5, sample 8243 (positive), peptide concentration 3.0 micrograms per milliliter, listed as HCV peptide IX): 1.959
- optical density (450 nm) ([2]; Table 5, sample 8320 (positive), peptide concentration 0.01 micrograms per milliliter, listed as HCV peptide IX): 0.461
- optical density (450 nm) ([2]; Table 5, sample 8320 (positive), peptide concentration 0.03 micrograms per milliliter, listed as HCV peptide IX): 1.007
- optical density (450 nm) ([2]; Table 5, sample 8320 (positive), peptide concentration 0.1 micrograms per milliliter, listed as HCV peptide IX): 1.244
- optical density (450 nm) ([2]; Table 5, sample 8320 (positive), peptide concentration 0.3 micrograms per milliliter, listed as HCV peptide IX): 1.798
- optical density (450 nm) ([2]; Table 5, sample 8320 (positive), peptide concentration 1.0 micrograms per milliliter, listed as HCV peptide IX): 0.802
- optical density (450 nm) ([2]; Table 5, sample 8320 (positive), peptide concentration 3.0 micrograms per milliliter, listed as HCV peptide IX): 1.779
- optical density (450 nm) ([2]; Table 5, sample 8326 (positive), peptide concentration 0.01 micrograms per milliliter, listed as HCV peptide IX): 1.812
- optical density (450 nm) ([2]; Table 5, sample 8326 (positive), peptide concentration 0.03 micrograms per milliliter, listed as HCV peptide IX): 2.193
- optical density (450 nm) ([2]; Table 5, sample 8326 (positive), peptide concentration 0.1 micrograms per milliliter, listed as HCV peptide IX): 2.284
- optical density (450 nm) ([2]; Table 5, sample 8326 (positive), peptide concentration 0.3 micrograms per milliliter, listed as HCV peptide IX): 2.271
- optical density (450 nm) ([2]; Table 5, sample 8326 (positive), peptide concentration 1.0 micrograms per milliliter, listed as HCV peptide IX): 2.271
- optical density (450 nm) ([2]; Table 5, sample 8326 (positive), peptide concentration 3.0 micrograms per milliliter, listed as HCV peptide IX): 2.284
- optical density (450 nm) [2, 7]: 1.213
- optical density (450 nm) [2, 8]: 0.756
- optical density (450 nm) [2, 9]: 0.047
- optical density (450 nm) [2, 10]: 0.051
- optical density (450 nm) [2, 11]: 0.053
- optical density (450 nm) [2, 12]: 0.074
- optical density (450 nm) [2, 13]: 0.270
- optical density (450 nm) [2, 14]: 0.048
- optical density (450 nm) [2, 15]: 0.052
- PEPTIDE ELISA (O.D.) ([2]; serum 0843): 2.206
- PEPTIDE ELISA (O.D.) ([2]; serum 8240): 0.142
- PEPTIDE ELISA (O.D.) ([2]; serum 8241): 0.421
- PEPTIDE ELISA (O.D.) ([2]; serum 8242): 2.114
- PEPTIDE ELISA (O.D.) ([2]; serum 8332): 0.392
- PEPTIDE ELISA (O.D.) ([2]; serum 8339): 2.497
- PEPTIDE ELISA (O.D.) ([2]; serum 8350): 1.779
- PEPTIDE ELISA (O.D.) ([2]; serum 8377): 2.360
- PEPTIDE ELISA (O.D.) ([2]; serum 8378): 1.859
- PEPTIDE ELISA (O.D.) ([2]; serum 8388): 2.300
- antibody binding to the 20-mers ([2]; serum 8241): very strong

Substance: Bio-Gly-Gly-Tyr-Asn-Lys-Arg-Lys-Arg-Ile-His-Ile-Gly-Pro-Gly-Arg-Ala-Phe-Tyr-Thr-Thr-Lys-Asn-Ile-Ile-Gly-NH2 (Biotin-GGYNKRKRIHIGPGRAFYTTKNIIG-NH2) [V3-mn Bio]
- optical density (450 nm) ([1]; Table 2, negative control): 0.069
- optical density (450 nm) ([1]; Table 3, Control, peptide bound to avidin): 0.063
- optical density (450 nm) ([1]; Table 3, Control, peptide bound to streptavidin): 0.050
- optical density (450 nm) [1, 3]: 0.059
- optical density (450 nm) [1, 4]: 0.046
- optical density (450 nm) [1, 5]: 0.048
- optical density (450 nm) [1, 6]: 0.091
- optical density (450 nm) [2, 7]: 0.114
- optical density (450 nm) [2, 8]: 0.052
- optical density (450 nm) [2, 9]: 0.048
- optical density (450 nm) [2, 10]: 0.056
- optical density (450 nm) [2, 11]: 0.056
- optical density (450 nm) [2, 12]: 0.053
- optical density (450 nm) [2, 13]: 0.143
- optical density (450 nm) [2, 14]: 0.050
- optical density (450 nm) [2, 15]: 0.053
